# Entries after “also recorded” stand apart in the source; their conditions may differ.
# Key:
# [1] = molecular target: purified bovine adrenal G6PDH (Bos taurus, UniProt F1MMK2); assay: G6PDH inhibition test; type: biochemical; details: individual determinations
# From the text: The compound listed below are screened as inhibitors of purified bovine adrenal G6PDH activity as one predictor of cancer preventive action. The assay for testing the inhibition of purified bovine adrenal G6PDH is according to the procedure by Oertell, G. W. and Rebelein, I. in Biochem. Biophys. Acta, 184, 459-460 (1969).
# [2] = Estrogenic and anti-estrogenic activity, uterine weight; type: in vivo, rat (female CD); details: Table 2a; 60 mg/kg s.c. for 3 days; control 1.95 ± 0.22; DHEA significantly greater than control, p < 0.001
# Procedure: Estrogenic and Anti-Estrogenic Activity
# Female CD rats, 26-27 days old, were injected subcutaneously for 3 days with one of the compounds of the present invention at 60 mg/kg in propylene glycol. Controls received propylene glycol alone. On the 4th day, the rats were killed and the uteri were dissected out and weighed.
# [3] = test system: mouse epidermis (TPA stimulated 3H-thymidine incorporation); assay: TPA stimulation of 3H-thymidine incorporation in mouse epidermis, oral steroid; type: in vivo, mouse (male ICR); details: Table 9, no steroid 55.1, TPA alone 118
# Procedure: Tumor promoters, such as TPA, stimulate hyperplasia and DNA synthesis when applied to the skin, and it is believed that this stimulation is an important step in the enhancement of tumorigenesis.
# Male ICR mice were orally intubated with steroid suspended in sesame oil (0.5 ml/mouse) at the indicated dose. Mice not receiving steroid were given sesame oil alone. One hour later mice received topical application of TPA and 20 hours later the rate of ^3 H-thymidine incorporation into the epidermis was determined as described in Pashko, L. L., Schwartz, A. G., Abou-Gharbia, M., and Swern, D. (1981), Inhibition of DNA synthesis in mouse epidermis and breast epithelium by dehydroepiandrosterone and related steroids, Carcinogenesis, 2,-717-721.
# Experimental conditions are the same as in Table 3.
# mouse skin DNA = assay: (3H) DMBA binding to skin DNA; type: in vivo, mouse (A/J); details: oral, mice, doses well below 400 mg/kg
# [4] = Anti-obesity action, body weight, female Balb/c mice; type: in vivo, mouse (female Balb/c); details: 0.25% in diet
# Procedure: Female Balb/c (8 weeks old) mice were obtained from
# the Jackson Laboratory and were housed in polycarbonate cages
# (6 mice/cage) in animal quarters maintained at 24 ± 1° C. with
# 12 hours of light and 12 hours of darkness each day. One
# week after arrival, the mice were placed on a diet containing
# either DHEA, 8354, or without steroid. Animals were weighed
# [5] = Liver weight after three weeks of diet treatment; type: in vivo, mouse (female Balb/c); details: 0.25% of diet
# Procedure: (§1) Female Balb/c mice were housed in polycarbonate cages (6/mice/cage) in animal quarters maintained at 24°±1° C. with 12 hours of light and 12 hours of dark each day. The mice were placed on a diet containing either DHEA, 8354, A, B clofibrate or with no addition. Three weeks later the mice were killed, the livers were perfused with cold saline, weighed, and 5% liver homogenates were prepared for the determination of catalase activity by the spectrophotometric method of Luck (H. Luck, in Method in Enzyme Analysis, H. U. Bergmeyer, Ed. (Verlag Chemie, Weinheim/Bergstrasse, Germany, 1965)). Total protein was measured by the method of Lowry, et al. (O. H. Lowry, N. J. Rosebrough, A. L. Farr, R. J. Randall, J. Biol. Chem., 193, 265 (1951)).
# liver catalase = assay: Liver catalase activity after three weeks of diet treatment; type: in vivo, mouse (female Balb/c); details: 0.25% of diet
# Procedure: as §1
# [6] = Estrogenic / androgenic side-effects, general statements; details: in vivo
# [7] = Anti-weight effect in mice, general statements; type: in vivo, mouse
# From the text: (Table 9 vs Table 5 and Table 6). […] Thus the cancer preventive the cancer preventive effect of DHEA may result indirectly from its anti-weight action rather than from a direct effect of DHEA or target cells.
# [8] = after carcinogen; cited from earlier work
# [9] = in vivo; cited from earlier work
# [10] = DMBA-initiated and TPA-promoted; cited from earlier work
# [11] = topical, complete carcinogenesis model; cited from earlier work
# [12] = test system: mammalian glucose-6-phosphate dehydrogenase (G6PDH); details: cited from earlier work
# [13] = test system: human lymphocytes (Epstein-Barr virus-induced transformation); details: cited from earlier work
# Sequence of purified bovine adrenal G6PDH (F1MMK2 31-70): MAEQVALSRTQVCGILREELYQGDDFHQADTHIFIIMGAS
# Sequence of purified bovine adrenal G6PDH (F1MMK2 101-575): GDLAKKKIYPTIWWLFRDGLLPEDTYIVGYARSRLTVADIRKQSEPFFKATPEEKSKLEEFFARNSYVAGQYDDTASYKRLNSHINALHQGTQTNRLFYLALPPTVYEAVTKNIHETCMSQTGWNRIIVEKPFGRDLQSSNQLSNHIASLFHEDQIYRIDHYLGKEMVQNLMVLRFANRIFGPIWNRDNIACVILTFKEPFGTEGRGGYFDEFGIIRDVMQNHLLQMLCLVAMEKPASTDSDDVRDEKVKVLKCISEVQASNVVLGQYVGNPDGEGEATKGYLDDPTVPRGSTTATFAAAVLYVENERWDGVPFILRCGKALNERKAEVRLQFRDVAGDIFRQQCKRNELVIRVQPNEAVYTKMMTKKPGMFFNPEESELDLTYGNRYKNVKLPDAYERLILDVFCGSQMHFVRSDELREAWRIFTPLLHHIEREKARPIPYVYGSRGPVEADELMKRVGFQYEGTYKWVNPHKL
structure (smiles),measurement,setting,value
C[C@]12CCCCC1=CC[C@@H]1[C@@H]2CC[C@]2(C)C(=O)[C@H](F)C[C@@H]12 [Compound 8354],Percent Inhibition of G6PDH,[1]; 10^-5 M,83%
same,inhibition at 10 µM,"[1]; 10^-5 M, read-out: Percent Inhibition of G6PDH",79%
same,Percent Inhibition of G6PDH,[1]; 10^-6 M,77%
same,inhibition at 1 µM,"[1]; 10^-6 M, read-out: Percent Inhibition of G6PDH",75%
same,Mean Uterine Weigh ± S.D.,[2],1.93 ± 0.29
same,"SPECIFIC ACTIVITY, TPA stimulated 3H-thymidine incorporation",[3]; oral 25 mg/kg,47.9 ± 2.0 cpm/ug DNA
same,"SPECIFIC ACTIVITY, TPA stimulated 3H-thymidine incorporation",[3]; oral 50 mg/kg,36.2 ± 1.4 cpm/ug DNA
same,"SPECIFIC ACTIVITY, TPA stimulated 3H-thymidine incorporation",[3]; oral 100 mg/kg,15.0 ± 6.3 cpm/ug DNA
same,effect on 3H-DMBA binding to skin DNA,mouse skin DNA,inhibit ^3 H-DMBA binding to skin DNA
same,mean weekly weight ± S.D.,"[4]; week 0, control 17.5 ± 1.4",17.4 ± 0.6 grams
same,mean weekly weight ± S.D.,"[4]; week 1, control 19.9 ± 1.2",16.9 ± 1.0 grams
same,mean weekly weight ± S.D.,"[4]; week 2, control 20.6 ± 1.0",17.8 ± 0.8 grams
same,mean weekly weight ± S.D.,"[4]; week 3, control 21.8 ± 0.8",18.0 ± 1.3 grams
same,LIVER WEIGHT,"[5]; control 0.057 ± 0.006, DHEA p < 0.05, clofibrate p < 0.002 vs control",0.066 ± 0.005 gm/gm body weight
same,"liver weight, in words",[5]; mice,no effect on liver weight; also recorded: neither increased liver weight
same,CATALASE ACTIVITY,"liver catalase; control 31.1 ± 6.7, DHEA p < 0.05, clofibrate p < 0.001 vs control",29.2 ± 2.6 Units per mg protein
same,"catalase activity, in words",liver catalase; mice,no effect on liver weight or catalase activity
same,estrogenic and androgenic side-effects,[6],lacking the estrogenic and androgenic side-effects of DHEA
same,activity as an anti-obesity agent relative to DHEA,"[7]; mouse, in vivo",several times more active than DHEA as an anti-obesity agent
same,anti-weight effect at the cancer preventive dosages,"[7]; oral, mice",possible exception
CCCCC(CC)COC(=O)c1ccccc1C(=O)OCC(CC)CCCC (centres unmarked) [di(2-ethylhexyl)-phthalate],"liver basophilic lesions, enzyme-negative",[8],also produced
same,effect on liver (type of hepatomegaly),[9],Typical peroxisome proliferators
C[C@H]1CC[C@@]2(C)C(=CC[C@@H]3[C@@H]2CC[C@]2(C)C(=O)CC[C@@H]32)C1 [3β-methylandrost-5-en-17-one],skin papilloma formation,[10],inhibit
same,DMBA produced papillomas and carcinomas,[11],inhibits DMBA produced papillomas and carcinomas
C[C@]12CC[C@H](O)C[C@@H]1CC[C@@H]1[C@@H]2CC[C@]2(C)C(=O)C(Br)C[C@@H]12 (some centres unmarked) [16-bromo-epiandrosterone],inhibition of mammalian G6PDH,[12],more potent inhibitor of mammalian G6PDH than DHEA
same,inhibition of Epstein-Barr virus-induced transformation,[13],inhibitors of Epstein-Barr virus-induced transformation of human lymphocytes

# From patent US5744462A, “Steroids useful as anti-cancer and anti-obesity agents” (Research Corporation Technologies, Inc., priority 1995, dated 1998)
